Experiments:
NLRP3 inflammasome = target: T1, NLRP3 inflammasome (Mus musculus, UniProt Q8R4B8); assay: ELISA of IL-1β production induced by ATP in LPS primed BMDMs; type: cell-based; conditions: BMDMs primed with LPS 10 ng/ml 18 hours; compound 6.25, 12.5, 25, 50 μM 1 hour; ATP 5 mM 2 hours; FIG. 9 upper graph
T1 construct: checked a degree of IL-1β production induced by ATP in LPS primed BMDMs using ELISA; endogenous in cells; host or cells: bone marrow-derived macrophages (BMDM) from wild-type C57BL/6 mouse, LPS-primed and ATP-stimulated
T1 sequence (Q8R4B8 whole entry): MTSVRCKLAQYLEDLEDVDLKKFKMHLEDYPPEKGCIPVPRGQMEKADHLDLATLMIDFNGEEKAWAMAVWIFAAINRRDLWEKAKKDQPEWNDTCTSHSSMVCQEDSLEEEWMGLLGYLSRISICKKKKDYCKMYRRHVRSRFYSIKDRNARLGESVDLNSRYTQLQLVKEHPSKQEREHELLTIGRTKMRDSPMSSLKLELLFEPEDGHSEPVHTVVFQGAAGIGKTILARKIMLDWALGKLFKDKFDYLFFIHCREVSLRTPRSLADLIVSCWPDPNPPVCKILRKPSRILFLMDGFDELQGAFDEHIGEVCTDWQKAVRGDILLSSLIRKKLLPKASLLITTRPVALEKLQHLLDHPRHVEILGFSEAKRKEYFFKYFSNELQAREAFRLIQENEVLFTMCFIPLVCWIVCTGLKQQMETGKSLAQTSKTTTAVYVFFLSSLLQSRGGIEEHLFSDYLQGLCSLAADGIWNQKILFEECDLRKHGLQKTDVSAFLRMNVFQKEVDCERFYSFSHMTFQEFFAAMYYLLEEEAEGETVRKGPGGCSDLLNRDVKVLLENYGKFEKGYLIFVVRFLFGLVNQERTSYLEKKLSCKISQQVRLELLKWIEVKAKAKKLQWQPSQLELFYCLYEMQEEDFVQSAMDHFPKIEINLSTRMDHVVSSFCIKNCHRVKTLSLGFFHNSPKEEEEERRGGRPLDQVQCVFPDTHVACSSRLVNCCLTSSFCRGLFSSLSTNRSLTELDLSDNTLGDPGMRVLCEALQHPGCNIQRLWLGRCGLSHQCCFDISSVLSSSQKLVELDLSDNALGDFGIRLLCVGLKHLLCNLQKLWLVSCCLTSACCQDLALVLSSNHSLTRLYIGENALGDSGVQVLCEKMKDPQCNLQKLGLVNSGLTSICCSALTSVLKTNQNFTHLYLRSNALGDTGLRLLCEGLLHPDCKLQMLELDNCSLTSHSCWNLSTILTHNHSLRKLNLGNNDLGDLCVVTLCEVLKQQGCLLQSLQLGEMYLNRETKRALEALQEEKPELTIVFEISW
Experimental: When LPS primed bone marrow-derived macrophages are treated with ATP, NLPR3 inflammasome is activated, and, thus, IL-1β is secreted. Therefore, in order to check whether the apo-9′-fucoxanthinone compound has an effect of inhibiting the NLRP3 inflammasome, the inventors of the present invention checked a degree of IL-1β production induced by ATP in LPS primed BMDMs using ELISA To do so, the bone marrow-derived macrophages cultured in the same manner as Example 2 were dispensed at 1×10^5 cells/0.5 ml in a 48-well plate, and these cells were treated with LPS at a concentration of 10 ng/ml for 18 hours. Then, the cells were treated with the apo-9′-fucoxanthinone compound at each concentration (0, 6.25, 12.5, 25, and 50 μM) for 1 hour. At 2 hours after treatment with ATP at a concentration of 5 mM, a cell culture medium was obtained and an expression amount of IL-1β was measured using ELISA (R&D system, MN, USA). Further, as a positive control group, a group treated with 10 μM parthenolide (described as “part” in the drawings) known as an NLRP3 inflammasome inhibitor was used.

ERK1/2 (ERK p44/p42) = assay: Western blot of MAPK phosphorylation in CpG-ODN-stimulated macrophages; type: cell-based, mouse; conditions: macrophages pre-treated at 20 μM for 1 hour before CpG-ODN; FIG. 6A
Experimental: (§1) In order to check whether the apo-9′-fucoxanthinone compound has an effect on activities of MAPK and NF-κB that are upstream signal transduction pathways for pro-inflammatory cytokine production, a Western blot analysis was conducted as follows. That is, the macrophages were dispensed to 60-mm culture dishes at 4×10^6 cells per dish, and then cultured for 24 hours at 37° C. The cells were pre-treated with the apo-9′-fucoxanthinone compound at a concentration of 20 μM for 1 hour before treatment with CpG-ODN. The cells were collected and dissolved using a lysis buffer (PRO-PREP Lysis buffer, iNtRON Biotechnology). Protein samples were electrophoresed in 10%-SDS PAGE, and then electrophoresed in a polyvinylidene fluoride membrane, and then treated and reacted with phospho-p44/42 (P-ERK p44/p42), phospho-p38 (P-p38), p38 MAPK, phospho-SAPK/JNK (P-JNK), phospho-IκBα, and IκBα (Cell Signaling Technology, MA, USA) as 1/1000 diluted primary antibodies. Thereafter, the membrane was washed and treated and reacted with horseradish peroxidase-linked anti-rabbit IgG (Cell Signaling Technology). Then, a signal was checked using a WEST-ZOL plus western blot detection system (iNtRON Biotechnology).

[1] = tested on: IL-12 p40, IL-6, and TNF-α; assay: ELISA of pro-inflammatory cytokine production in CpG-ODN-stimulated bone marrow-derived dendritic cells; type: cell-based, mouse; conditions: compound 5, 10, 20, 50 μM for 1 hour before CpG-ODN (1 μM), FIG. 5
Experimental: (§2) Bone marrow-derived dendritic cells (BMDC) and macrophage (BMDM) were obtained from a wild-type C57BL/6 mouse. To be brief, bone marrow cells were obtained by flushing a tibia and femur of the mouse with DMEM (Dulbecco's modified Eagles medium). The cells were cultured in a medium RPMI 1640 including 10% heat-inactivated FBS (Gibco, NY, U.S.A.), 50 μM of β-mercapto ethanol, and 2 mM glutamine and supplemented with 3% hybridoma cell culture supernatant J558L containing granulocyte-macrophage colony-stimulating factor (GM-CSF) for BMDCs.
In order to check whether the Sargassum muticum extracts obtained in the present invention has an anti-inflammatory and an immunomodulatory activity, the following experiments were conducted with the Sargassum muticum extracts obtained in Example <1-1>. That is, bone marrow-derived macrophage and dendritic cells cultured as described above were seeded at 1×10^5 cells/0.5 ml in a 48-well plate. […] Supernatants were harvested 18 hour after stimulation. Amounts of IL-12 p40, IL-6, and TNF-α were measured using ELISA (BD PharMingen, CA, USA and R&D system, MN, USA). At this time, a non-treated group, a group treated with the extracts only, and a group treated with CpG-ODN only without treatment with the extracts were used as a control group. […]

[2] = tested on: IL-12 p40, IL-6, and TNF-α; assay: ELISA of pro-inflammatory cytokine production in CpG-ODN-stimulated bone marrow-derived macrophage; type: cell-based, mouse; conditions: compound 5, 10, 20, 50 μM for 1 hour before CpG-ODN (1 μM), FIG. 4
Experimental: as §2
Further, the obtained bone marrow cells were cultured in a DMEM including 20% heat-inactivated FBS, a 30% L929 cell culture supernatant containing a macrophage colony-stimulating factor, and 1% penicillin-streptomycin for BMDMs.
In order to check whether the Sargassum muticum extracts obtained in the present invention has an anti-inflammatory and an immunomodulatory activity, the following experiments were conducted with the Sargassum muticum extracts obtained in Example <1-1>. That is, bone marrow-derived macrophage and dendritic cells cultured as described above were seeded at 1×10^5 cells/0.5 ml in a 48-well plate. […] Supernatants were harvested 18 hour after stimulation. Amounts of IL-12 p40, IL-6, and TNF-α were measured using ELISA (BD PharMingen, CA, USA and R&D system, MN, USA). […]

[3] = tested on: bone marrow-derived macrophages; assay: MTT assay of pyroptotic cell death of bone marrow-derived macrophages treated with LPS and ATP; type: cell-based, mouse; conditions: bone marrow-derived macrophages treated with both LPS and ATP; compound 6.25-50 μM; FIG. 9 lower graph
Experimental: When LPS primed bone marrow-derived macrophages are treated with ATP, NLPR3 inflammasome is activated, and, thus, IL-1β is secreted. Therefore, in order to check whether the apo-9′-fucoxanthinone compound has an effect of inhibiting the NLRP3 inflammasome, the inventors of the present invention checked a degree of IL-1β production induced by ATP in LPS primed BMDMs using ELISA To do so, the bone marrow-derived macrophages cultured in the same manner as Example 2 were dispensed at 1×10^5 cells/0.5 ml in a 48-well plate, and these cells were treated with LPS at a concentration of 10 ng/ml for 18 hours. Then, the cells were treated with the apo-9′-fucoxanthinone compound at each concentration (0, 6.25, 12.5, 25, and 50 μM) for 1 hour. At 2 hours after treatment with ATP at a concentration of 5 mM, a cell culture medium was obtained and an expression amount of IL-1β was measured using ELISA (R&D system, MN, USA). […]
That is, the cells treated as described above were treated with 0.2 mg of an MTT reagent and cultured at a temperature of 37° C. for 4 hours. After culture, the cells were collected and formazan crystals in each well were dissolved in 250 μl of DMSO, and then, an absorbance at 540 nm was measured to measure cell viability.

IκBα = assay: Western blot of degradation and phosphorylation of IκBα in CpG-ODN-stimulated macrophages; type: cell-based, mouse; conditions: macrophages pre-treated at 20 μM for 1 hour before CpG-ODN; FIG. 6B
Experimental: as §1

AP-1 = AP-1 reporter luciferase assay in TLR9-transfected HEK293T cells stimulated with CpG-ODN; type: cell-based; conditions: HEK293T cells transfected with murine TLR9-expressing plasmid; pre-treated 1 hour before CpG DNA (1 μM), 18 hour; FIG. 7
Experimental: It is known that activation of an MAPK signaling pathway activates a transcriptional factor AP-1, thereby increasing a DNA binding activity of AP-1 and expression of an AP-1-dependent gene. […] Firstly, HEK239T cells were plated in a 24-well plate and cultured overnight. Then, HEK293T cells were transfected with pcDNA3 (empty vector) or pcDNA3-mTLR9 that expresses murine TLR9, with an AP-1 reporter gene and pRLnull (Promega, WI, USA) using a Fugene 6 (Roche, UN, USA). Cells were then further incubated for 24 hour, and then pre-treated with the apo-9′-fucoxanthinone compound at each concentration as described in the above Examples for 1 hour before stimulation with CpG DNA (1 μM). After further incubation for 18 hour, the cells were lysed with a passive lysis buffer (Promega), and then analyzed using a dual luciferase reporter assay system (Promega). All of the experiments were repeated three times, and the results thereof were expressed in the fold increase.

CC(=O)C=C=C1C(C)(C)C[C@H](OC(C)=O)C[C@@]1(C)O [apo-9′-fucoxanthinone]
production of IL-1β (NLRP3 inflammasome): effectively inhibited in a dose-dependent manner
phosphorylation of ERK1/2 (ERK p44/p42) (ERK1/2 (ERK p44/p42)): strongly inhibited
pro-inflammatory cytokine production (IL-12 p40, IL-6, TNF-α) [1]: effectively inhibiting
pro-inflammatory cytokine production (IL-12 p40, IL-6, TNF-α) [2]: effectively inhibiting
pyroptotic cell death (cell viability, MTT) [3]: inhibiting pyroptotic cell death
degradation and phosphorylation of IκBα (IκBα): did not greatly affect
AP-1-dependent luciferase activity (AP-1): decreased in a dose-dependent manner

From patent publication US20150182487A1, “COMPOSITION FOR PREVENTING AND TREATING INFLAMMATORY DISEASES AND IMMUNE DISEASES, CONTAINING APO-9`-FUCOXANTHINONE AS ACTIVE INGREDIENT” (JEJU NATIONAL UNIVERSITY INDUSTRY ACADEMIC COOPERATION …, priority 2012, published 2015)
